The values below are quoted from earlier work in US9840652B2, “Water-based drilling fluid with cyclodextrin shale stabilizer” (Halliburton Energy Services, Inc., priority 2012, dated 2017).

Series [1] deals with Daphnia magna.
The subject of series [2] is desmodesmus subspicatus.
Series [3] relates to Cyprinus carpio (common carp).

Regarding `OC[C@H]1O[C@@H]2O[C@H]3[C@H](O)[C@@H](O)[C@@H](O[C@H]4[C@H](O)[C@@H](O)[C@@H](O[C@H]5[C@H](O)[C@@H](O)[C@@H](O[C@H]6[C@H](O)[C@@H](O)[C@@H](O[C@H]7[C@H](O)[C@@H](O)[C@@H](O[C@H]8[C@H](O)[C@@H](O)[C@@H](O[C@H]1[C@H](O)[C@H]2O)O[C@@H]8CO)O[C@@H]7CO)O[C@@H]6CO)O[C@@H]5CO)O[C@@H]4CO)O[C@@H]3CO` [β-cyclodextrin], the “48-hr EC50” value in series [1] was over 100 µg/mL. The “72-hr density EC50” value in series [2] was over 100 µg/mL. For the same molecule, the “96-hr LC50” value in series [3] is 7561 µg/mL.
